Data on 19 compounds can be found in patent US12037324B2, “Biarylmethyl heterocycles” (Université de Montréal, priority 2016, dated 2024).

pEC50: −log10 of the molar value.

Holding throughout (format): cell-based
The target in experiment [1] is T1, AGTR1 (Homo sapiens, UniProt P30556).
T1 construct: host or cells: Pathunter CHO-K1 AGTR1 β-arrestin cell line (CHO-K1)
T1 sequence (P30556 1-359): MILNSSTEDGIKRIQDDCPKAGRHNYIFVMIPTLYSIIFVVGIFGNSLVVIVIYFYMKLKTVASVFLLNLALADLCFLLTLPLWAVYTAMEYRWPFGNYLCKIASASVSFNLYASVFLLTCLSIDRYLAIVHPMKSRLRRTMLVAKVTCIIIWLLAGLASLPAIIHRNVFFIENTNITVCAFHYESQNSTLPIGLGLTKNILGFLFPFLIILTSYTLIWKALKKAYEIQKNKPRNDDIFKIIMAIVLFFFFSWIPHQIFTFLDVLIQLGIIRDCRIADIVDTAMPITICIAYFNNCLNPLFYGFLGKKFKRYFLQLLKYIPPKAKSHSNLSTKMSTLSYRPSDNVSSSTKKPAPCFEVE
Put plainly: DiscoveRx β-arrestin2 recruitment assay (enzyme complementation, Pathunter CHO-K1 AGTR1 β-arrestin cell line). The settings on record: DiscoveRx β-arrestin2 recruitment; for DiscoveRx β-arrestin2 Ymax (%): maximal response. Summed up: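 Chemiluminescent enzyme-complementation read-out of β-arrestin2 recruitment to AGTR1 in engineered CHO-K1 cells after 90 min compound exposure at 37° C. Values are 4-parameter logistic EC50s in agonist mode, IC50s in antagonist mode, with efficacy relative to the maximal All response.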

Experiment [2] has as its target T1, AGTR1. In words: DiscoveRx IP1 accumulation assay (HTRF), agonist mode, Pathunter CHO-K1 AGTR1 β-arrestin cell line. As to conditions: for pEC50: read-out: IP-1 EC50. An outline of the steps: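 Agonist mode in CHO-K1 AGTR1 β-arrestin cells plated 14-16 h before; compounds at varying concentrations for 90 min at 37° C, IP1 accumulation read by HTRF (D2-conjugate and anti-IP1 cryptate, 20 min room temperature). EC50 from 4-parameter logistic fit; activity given as percentage of maximal AII effect.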

Another experiment addresses T2, hAT1R (Homo sapiens, UniProt P30556).
T2 sequence (P30556 1-359): T1 sequence (P30556 1-359)
Put plainly: BRET β-arrestin2 biosensor assay, higher receptor expression (hAT1R 5 ng/well), HEK293 cells. As to conditions: for pEC50: High AT1R Expression. Background: Bioluminescence resonance energy transfer reports proximity on the nanometre scale.

Turning to `CCc1nc2c(C)cc(C)nc2n1Cc1ccc(-c2cc(-c3ccc(F)cc3F)ccc2-c2nn[nH]n2)cc1` [Example 54], at AGTR1 [1], the pEC50 was 8.23 and the “DiscoveRx β-arrestin2 Ymax (%)” value stood at 39.5%. Besides, on AGTR1 [2], the “IP-1 Ymax (%)” value is given as 7.0% and the pEC50 was 7.98. For the same compound, on hAT1R, the “BRET β-Arrestin2 High AT1R Expression Ymax (%)” value is recorded as 89.7% and the negative logarithm of the EC50 (pEC50) is 8.24.

In the case of `CCc1nc2c(C)cc(C)nc2n1Cc1ccc(-c2cc(N3CCC(OC)CC3)ccc2-c2nn[nH]n2)cc1` [Example 87], on AGTR1 [1], the pEC50 was 7.37 and the “DiscoveRx β-arrestin2 Ymax (%)” value is listed as 16.7%. At AGTR1 [2], the “IP-1 Ymax (%)” value worked out at 7.2% and the pEC50 was 7.38. For the same compound, on hAT1R, the “BRET β-Arrestin2 High AT1R Expression Ymax (%)” value was 29.1% and the pEC50 was 6.35.

With `CCCCC1=NC2(CCCC2)C(=O)N1Cc1ccc(-c2cc(-n3ccc4ccc(F)cc43)ccc2-c2nn[nH]n2)cc1` [Example 109], on AGTR1 [1], the negative-log EC50 (pEC50) was 7.71 and the “DiscoveRx β-arrestin2 Ymax (%)” value is 17.4%. Further, at AGTR1 [2], the negative-log EC50 (pEC50) was below 4.00. Further, on hAT1R, the “BRET β-Arrestin2 High AT1R Expression Ymax (%)” value is on record as 59.9% and the pEC50 is 7.14.

For the compound `CCc1nc2c(C)cc(C)nc2n1Cc1ccc(-c2cc(Oc3ccccc3)ccc2C(=O)O)cc1` [Example 213, 4′-((2-Ethyl-5,7-dimethyl-3H-imidazo[4,5-b]pyridin-3-yl)methyl)-5-phenoxy-[1,1′-biphenyl]-2-carboxylic acid], at AGTR1 [1], the pEC50 was 6.67 and the “DiscoveRx β-arrestin2 Ymax (%)” value was 27.3%. Further, on AGTR1 [2], the “IP-1 Ymax (%)” value amounted to 6.9% and the pEC50 is 6.06. Moreover, on hAT1R, the “BRET β-Arrestin2 High AT1R Expression Ymax (%)” value was found to be 89.9% and the pEC50 was 7.03.

Consider `CCCCC1=NC2(CCCC2)C(=O)N1Cc1ccc(-c2cc(-c3ccc(OC(F)F)cn3)ccc2-c2nn[nH]n2)cc1` [Example 136], for which, on AGTR1 [1], the negative logarithm of the EC50 (pEC50) was 8.31 and the “DiscoveRx β-arrestin2 Ymax (%)” value is recorded as 43.2%. In addition, at AGTR1 [2], the “IP-1 Ymax (%)” value is on record as 18.1% and the pEC50 is 7.84. On hAT1R, the “BRET β-Arrestin2 High AT1R Expression Ymax (%)” value is 94.2% and the negative logarithm of the EC50 (pEC50) is 8.00.

`CCCCC1=NC2(CCCC2)C(=O)N1Cc1ccc(-c2cc(-c3cccc(C(F)(F)F)n3)ccc2-c2nn[nH]n2)cc1` [Example 142]: on AGTR1 [1], the pEC50 was 7.56 and the “DiscoveRx β-arrestin2 Ymax (%)” value is listed as 22.7%. Also, at AGTR1 [2], the “IP-1 Ymax (%)” value came to 4.8% and the negative logarithm of the EC50 (pEC50) was 6.85. At hAT1R, the “BRET β-Arrestin2 High AT1R Expression Ymax (%)” value is recorded as 82.9% and the pEC50 was 7.23.

Consider `CCCCC1=NC2(CCCC2)C(=O)N1Cc1ccc(-c2cc(-c3cscn3)ccc2-c2nn[nH]n2)cc1` [Example 137], for which the pEC50 at AGTR1 [1] is below 4.00; on AGTR1 [2], below 4.00; on hAT1R it was 7.45. Further, the “BRET β-Arrestin2 High AT1R Expression Ymax (%)” value on hAT1R was found to be 12.2%.

With `CCCCC1=NC2(CCCC2)C(=O)N1Cc1ccc(-c2cc(-c3ccsn3)ccc2-c2nn[nH]n2)cc1` [Example 123, 2-butyl-3-((5′-(isothiazol-3-yl)-2′-(2H-tetrazol-5-yl)-[1,1′-biphenyl]-4-yl)methyl)-1,3-diazaspiro[4.4]non-1-en-4-one], on AGTR1 [1], the pEC50 is 8.01 and the “DiscoveRx β-arrestin2 Ymax (%)” value is 4.9%. In addition, on AGTR1 [2], the pEC50 was below 4.00. In addition, on hAT1R, the “BRET β-Arrestin2 High AT1R Expression Ymax (%)” value is 20.6% and the pEC50 is 7.19.

On to `CCc1nc2c(C)cc(C)nc2n1Cc1ccc(-c2cc(C3=CCCCC3)ccc2-c2nn[nH]n2)cc1` [Example 70, 3-((6′-(2H-Tetrazol-5-yl)-2″,3″,4″,5″-tetrahydro-[1,1′:3′,1″-terphenyl]-4-yl)methyl)-2-ethyl-5,7-dimethyl-3H-imidazo[4,5-b]pyridine], for which, at AGTR1 [1], the pEC50 is 7.88 and the “DiscoveRx β-arrestin2 Ymax (%)” value came out at 58.7%. On AGTR1 [2], the negative logarithm of the EC50 (pEC50) is below 4.30. At hAT1R, the “BRET β-Arrestin2 High AT1R Expression Ymax (%)” value was 94.7% and the pEC50 is 8.15.

With `CCc1nc2c(C)cc(C)nc2n1Cc1ccc(-c2cc(Oc3ccccc3)cc(C)c2-c2nnn[nH]2)cc1` [Example 211, 2-Ethyl-5,7-dimethyl-3-((3′-methyl-5′-phenoxy-2′-(1H-tetrazol-5-yl)-[1,1′-biphenyl]-4-yl)methyl)-3H-imidazo[4,5-b]pyridine], on AGTR1 [1], the negative-log EC50 (pEC50) is 7.01 and the “DiscoveRx β-arrestin2 Ymax (%)” value was 21.2%. Further, at AGTR1 [2], the “IP-1 Ymax (%)” value turned out to be 8.7% and the pEC50 is 6.63. Moreover, at hAT1R, the “BRET β-Arrestin2 High AT1R Expression Ymax (%)” value is on record as 80.2% and the pEC50 is 7.17.

On to `CCCCOC(=O)NS(=O)(=O)c1sc(-c2ccccc2C(F)(F)F)cc1-c1ccc(Cn2c(CC)nc3c(C)cc(C)nc32)cc1` [Example 45, Butyl (3-(4-((2-ethyl-5,7-dimethyl-3H-imidazo[4,5-b]pyridin-3-yl)methyl)phenyl)-5-(2-(trifluoromethyl)phenyl)thiophen-2-yl)sulfonylcarbamate], for which, on AGTR1 [1], the pEC50 was 7.61 and the “DiscoveRx β-arrestin2 Ymax (%)” value was determined as 60.3%. Besides, at AGTR1 [2], the “IP-1 Ymax (%)” value turned out to be 14.5% and the pEC50 is 7.84. Moreover, on hAT1R, the “BRET β-Arrestin2 High AT1R Expression Ymax (%)” value was 92.2% and the pEC50 is 7.46.

In the case of `CCc1nc2c(C)cc(C)nc2n1Cc1ccc(-c2cc(Oc3cccc(OC(F)(F)F)c3)ccc2-c2nnn[nH]2)cc1` [Example 207], on AGTR1 [1], the negative logarithm of the EC50 (pEC50) was 7.94 and the “DiscoveRx β-arrestin2 Ymax (%)” value is 23.1%. Besides, on AGTR1 [2], the “IP-1 Ymax (%)” value amounted to 2.5% and the pEC50 is 7.41. Besides, on hAT1R, the “BRET β-Arrestin2 High AT1R Expression Ymax (%)” value is on record as 74.8% and the pEC50 is 7.66.

In the case of `CCCCOC(=O)NS(=O)(=O)c1sc(-c2cccnc2OC)cc1-c1ccc(Cn2c(CC)nc3c(C)cc(C)nc32)cc1` [Example 47, Butyl (3-(4-((2-ethyl-5,7-dimethyl-3H-imidazo[4,5-b]pyridin-3-yl)methyl)phenyl)-5-(2-methoxypyridin-3-yl)thiophen-2-yl)sulfonylcarbamate], on AGTR1 [1], the pEC50 is 8.00 and the “DiscoveRx β-arrestin2 Ymax (%)” value stood at 24.5%. For the same compound, at AGTR1 [2], the “IP-1 Ymax (%)” value worked out at 3.8% and the pEC50 is 8.21. Further, on hAT1R, the “BRET β-Arrestin2 High AT1R Expression Ymax (%)” value came to 56.6% and the pEC50 is 7.83.

Take `CCCCC1=NC2(CCCC2)C(=O)N1Cc1ccc(-c2cc(-c3ccc(OC(F)(F)F)cc3)ccc2-c2nn[nH]n2)cc1` [Example 134]: at AGTR1 [1], the pEC50 was 7.13 and the “DiscoveRx β-arrestin2 Ymax (%)” value turned out to be 40.3%. Further, at AGTR1 [2], the “IP-1 Ymax (%)” value was determined as 4.0% and the pEC50 is 6.99. Moreover, at hAT1R, the “BRET β-Arrestin2 High AT1R Expression Ymax (%)” value turned out to be 77.0% and the negative-log EC50 (pEC50) is 6.80.

For the compound `CCc1nc2c(C)cc(C)nc2n1Cc1ccc(-c2cc(N3CC(C)(C)c4ccccc43)ccc2-c2nn[nH]n2)cc1` [Example 84], on AGTR1 [1], the pEC50 was 7.04 and the “DiscoveRx β-arrestin2 Ymax (%)” value is 35.3%. For the same compound, on AGTR1 [2], the “IP-1 Ymax (%)” value came out at 6.6% and the pEC50 is 6.90. Moreover, on hAT1R, the “BRET β-Arrestin2 High AT1R Expression Ymax (%)” value came to 88.9% and the pEC50 was 7.44.

Take `CCCCC1=NC2(CCCC2)C(=O)N1Cc1ccc(-c2cc(-c3cccc(F)c3F)ccc2-c2nn[nH]n2)cc1` [Example 135]: the pEC50 on AGTR1 [1] was 7.86; on AGTR1 [2], below 4.00; on hAT1R, 7.54. Besides, the “DiscoveRx β-arrestin2 Ymax (%)” value on AGTR1 [1] stood at 38.6%. The “BRET β-Arrestin2 High AT1R Expression Ymax (%)” value at hAT1R was 94.8%.

For the compound `CCCCC1=NC2(CCCC2)C(=O)N1Cc1ccc(-c2cc(N3CCCC(C)(C)C3)ccc2-c2nn[nH]n2)cc1` [Example 102], at AGTR1 [1], the negative logarithm of the EC50 (pEC50) is 7.35 and the “DiscoveRx β-arrestin2 Ymax (%)” value is given as 41.0%. Also, on AGTR1 [2], the “IP-1 Ymax (%)” value is 3.8% and the pEC50 was 6.14. Besides, on hAT1R, the “BRET β-Arrestin2 High AT1R Expression Ymax (%)” value stood at 71.6% and the pEC50 is 7.00.

Take `CCCCC1=NC2(CCCC2)C(=O)N1Cc1ccc(-c2cc(-c3ccccc3)ccc2-c2noc(=O)[nH]2)cc1` [Example 143, 3-(4″-((2-butyl-4-oxo-1,3-diazaspiro[4.4]non-1-en-3-yl)methyl)-[1,1′:3′,1″-terphenyl]-4′-yl)-1,2,4-oxadiazol-5(4H)-one]: at AGTR1 [1], the negative-log EC50 (pEC50) is 8.08 and the “DiscoveRx β-arrestin2 Ymax (%)” value was determined as 47.4%. On AGTR1 [2], the “IP-1 Ymax (%)” value came to 5.2% and the pEC50 is 7.74. Besides, on hAT1R, the “BRET β-Arrestin2 High AT1R Expression Ymax (%)” value is listed as 94.6% and the pEC50 was 8.09.

Turning to `CCCCC(=O)N(Cc1ccc(-c2cc(-c3ccccc3)ccc2-c2nn[nH]n2)cc1)[C@H](C(=O)O)C(C)C` [Example 34, (S)-2-(N-((6′-(2H-Tetrazol-5-yl)-[1,1′:3′,1″-terphenyl]-4-yl)methyl)pentanamido)-3-methylbutanoic acid], at AGTR1 [1], the pEC50 is 7.39 and the “DiscoveRx β-arrestin2 Ymax (%)” value is reported as 35.6%. Also, at AGTR1 [2], the “IP-1 Ymax (%)” value turned out to be 3.8% and the negative-log EC50 (pEC50) is 6.75. Moreover, at hAT1R, the “BRET β-Arrestin2 High AT1R Expression Ymax (%)” value came out at 68.4% and the pEC50 is 7.30.

One may read the pEC50 as −log10 of the EC50, conventionally taken in molar units.
